≈ marks a conversion by molar mass, not a printed value. Read-outs that look alike come from different tables or passages of the source.

The values that follow come from patent US4016159A, “Acylamino-cephem-carboxylic acids containing an amidino or guanidino group in the molecule” (Hoechst Aktiengesellschaft, priority 1973, dated 1977).

Format in all cases: cell-based
The test system of assay [1] is Staphylococcus aureus 285. The assay can be described thus: Minimum inhibition concentration (MIC), Table 1. The note with it: for MIC: Staphylococcus aureus, 285, Germ: Staphylococcus aureus 285, read-out: Minimum inhibition concentration (MIC). From the text:
(§1) Minimum inhibition concentration (MIC) in γ/ml
Germ: Staphylococcus aureus 285

Assay [2] concerns Proteus mirabilis. The assay is described as follows: Minimum inhibition concentration (MIC), Table 2. On the set-up: Minimum inhibition concentration (MIC): unit not given here. The settings on record: for MIC: read-out: Minimum inhibition concentration (MIC). From the text: Minimum inhibition concentration (MIC) in /ml
In assay [3] the test system is Streptococcus pyogenes A. The assay can be described thus: Minimum inhibition concentration (MIC), Table 3. The note with it: for MIC: read-out: Minimum inhibition concentration MIC. From the text:
Minimum inhibition concentration MIC in γ/ml
Germ: Streptococcus pyogenes A

The subject of assay [4] is Streptococcus D. The assay is described as follows: Minimum inhibition concentration (MIC), Table 4. The settings on record: for MIC: Streptococcus, read-out: Minimum inhibition concentration (MIC).
Text: as §1

The test system of assay [5] is Staphylococcus aureus SG 511. The assay is described as follows: Minimum inhibition concentration (MIC), Table 5. The settings on record: Staphylococcus aureus.
Text: as §1
Germ: Staphylococcus aureus SG 511

[6] abbreviates: SG511, Germ: Staphylococcus aureus SG 511, read-out: Minimum inhibition concentration (MIC).
Where [7] appears, read: SG511, read-out: Minimum inhibition concentration (MIC).

On to `CCc1nnc(SCC2=C(C(=O)O)N3C(=O)C(NC(=O)Cc4ccc(C5=NCCN5)cc4)C3SC2)s1` (stereo not shown) [Example 120], for which the MIC fell in the range of 0.156 to 0.391 µg/mL (≈ 0.286 to 0.718 µM) in assay [1]; 3.1 to 12.5 µg/mL (≈ 5.69 to 22.9 µM) in assay [2] (Germ: Proteus mirabilis); 0.000391 to 0.0078 µg/mL (≈ 0.000718 to 0.0143 µM) in assay [3] (Germ: Streptococcus pyogenes A); 10 to 50 µg/mL (≈ 18.4 to 91.8 µM) in assay [4] (Germ: Streptococcus D); 0.0196 to 0.0391 µg/mL (≈ 0.036 to 0.0718 µM) in assay [5] (setting [6]).
Regarding `CC1=C(C(=O)O)N2C(=O)[C@@H](NC(=O)[C@H](N)c3ccccc3)[C@H]2SC1` [Cephalexin, reference compound], the MIC was 25 µg/mL (≈ 72 µM) in assay [2] (Proteus mirabilis), 0.156 µg/mL (≈ 0.449 µM) in assay [3] (Streptococcus pyogenes), 100 µg/mL (≈ 288 µM) in assay [4] and 1.25 µg/mL (≈ 3.6 µM) in assay [5] (setting [7]).
With `Cc1nnc(SCC2=C(C(=O)O)N3C(=O)[C@@H](NC(=O)Cn4cnnn4)[C@H]3SC2)s1` [Cephazolin-Na, reference compound], the figures for the MIC in assay [2] (Germ: Proteus mirabilis), in assay [3] (Germ: Streptococcus pyogenes A) and in assay [5] (setting [6]) were 25 µg/mL (≈ 55 µM), 0.03 µg/mL (≈ 0.066 µM) and 0.25 µg/mL (≈ 0.55 µM), respectively.
With `N=C(N)c1ccc(CC(=O)NC2C(=O)N3C(C(=O)O)=C(CSc4nncs4)CSC23)cc1` (stereo not shown) [Example 1, 3-[(1,3,4-thiadiazole-2-yl)-thiomethyl]-7-(4-amidino-phenylacetamido)-Δ3-cephem-4-carboxylic acid], the MIC was 0.156 to 0.391 µg/mL (≈ 0.318 to 0.797 µM) in assay [1]; 3.1 to 12.5 µg/mL (≈ 6.32 to 25.5 µM) in assay [2] (Germ: Proteus mirabilis); 0.000391 to 0.0078 µg/mL (≈ 0.000797 to 0.0159 µM) in assay [3] (Germ: Streptococcus pyogenes A); 10 to 50 µg/mL (≈ 20.4 to 102 µM) in assay [4] (Germ: Streptococcus D); 0.0196 to 0.0391 µg/mL (≈ 0.04 to 0.0797 µM) in assay [5] (setting [6]).
For `O=C(Cc1ccc(C2=NCCCN2)cc1)NC1C(=O)N2C(C(=O)O)=C(CSc3nnc[nH]3)CSC12` (stereo not shown) [Example 94, 3-[(triazole-2-yl)-thiomethyl]-7-[4-(1,4,5,6-tetrahydro-pyrimide-2-yl)-phenylacetamido]-Δ3-cephem-4-carboxylic acid], the “Minimum inhibition concentration (MIC)” value in assay [1] (Germ: Staphylococcus aureus 285) is 1.6 to 2.5 µg/mL; in assay [2] (Germ: Proteus mirabilis), 25; in assay [3] (Germ: Streptococcus pyogenes A), 0.008 to 0.0156 µg/mL; in assay [4] (Germ: Streptococcus D) it was 10 to 50 µg/mL.
Consider `Cc1nnc(SCC2=C(C(=O)O)N3C(=O)C(NC(=O)Cc4ccc(C5=NCCCN5)cc4)C3SC2)s1` (stereo not shown) [Example 11, 3-[(5-methyl-1,3,4-thiadiazole-2-yl)-thiomethyl]-7-[4-(1,4,5,6-tetrahydro-pyrimide-2-yl)-phenylacetamido]-Δ 3-cephem-4-carboxylic acid], for which the MIC lay in the range of 0.5 to 1.25 µg/mL (≈ 0.918 to 2.29 µM) in assay [1], 3.1 to 12.5 µg/mL (≈ 5.69 to 22.9 µM) in assay [2] (Germ: Proteus mirabilis), 0.008 to 0.0156 µg/mL (≈ 0.0147 to 0.0286 µM) in assay [3] (Germ: Streptococcus pyogenes A) and 10 to 50 µg/mL (≈ 18.4 to 91.8 µM) in assay [4] (Germ: Streptococcus D).
The matching figures for `Cc1nnc(SCC2=C(C(=O)O)N3C(=O)C(NC(=O)Cc4ccc(C(=N)N)s4)C3SC2)s1` (stereo not shown) [Example 2, 3-[(5-methyl-1,3,4-thiadiazole-2-yl)-thiomethyl]-7-(5-amidinothienylacetamido)-Δ-3-cephem-4-carboxylic acid]: 0.156 to 0.391 µg/mL (≈ 0.305 to 0.766 µM), 25 µg/mL (≈ 49 µM), 0.008 to 0.0156 µg/mL (≈ 0.0157 to 0.0305 µM) and 10 to 50 µg/mL (≈ 19.6 to 97.9 µM).
Consider `O=C(Cc1ccc(C2=NCCCN2)cc1)NC1C(=O)N2C(C(=O)O)=C(CSc3ccncc3)CSC12` (stereo not shown) [Example 97, 3-(4-pyridyl-thiomethyl)-7-[4-(1,4,5,6-tetrahydropyrimide-2-yl)-phenylacetamido]-Δ3-cephem-4-carboxylic acid], for which the MIC in assay [1] was 1.6 to 2.5 µg/mL (≈ 3.06 to 4.77 µM); in assay [2] (Germ: Proteus mirabilis) it was 25 µg/mL (≈ 47.7 µM); in assay [3] (Germ: Streptococcus pyogenes A) it was 0.000391 to 0.0078 µg/mL (≈ 0.000747 to 0.0149 µM); in assay [4] (Germ: Streptococcus D), 10 to 50 µg/mL (≈ 19.1 to 95.5 µM).
As for `Nn1cnnc1SCC1=C(C(=O)O)N2C(=O)C(NC(=O)Cc3ccc(C4=NCCCN4)cc3)C2SC1` (stereo not shown) [Example 100, 3-[(4-amino-4H-1,2,4-triazole-3-yl)-thiomethyl]-7-[4-(1,4,5,6-tetrahydropyrimide-2-yl)-phenylacetamido]-Δ3-cephem-4-carboxylic acid], the MIC in assay [2] (Germ: Proteus mirabilis) is 3.1 to 12.5 µg/mL (≈ 5.86 to 23.6 µM); in assay [3] (Germ: Streptococcus pyogenes A), 0.008 to 0.0156 µg/mL (≈ 0.0151 to 0.0295 µM).
Take `O=C(Cc1ccc(C2=NCCCN2)cc1)NC1C(=O)N2C(C(=O)O)=C(CSc3nncs3)CSC12` (stereo not shown) [Example 19, 3-[(1,3,4-thiadiazole-2-yl)-thiomethyl]-7-[4-(1,4,5,6-tetrahydropyrimide-2-yl)-phenylacetamido]-Δ 3-cephem-4-carboxylic acid]: the MIC in assay [1] is 0.5 to 1.25 µg/mL (≈ 0.942 to 2.36 µM); in assay [2] (Germ: Proteus mirabilis), 3.1 to 12.5 µg/mL (≈ 5.84 to 23.6 µM); in assay [3] (Germ: Streptococcus pyogenes A), 0.000391 to 0.0078 µg/mL (≈ 0.000737 to 0.0147 µM); in assay [4] (Germ: Streptococcus D) it was 10 to 50 µg/mL (≈ 18.8 to 94.2 µM).
Take `CC(=O)OCC1=C(C(=O)O)N2C(=O)[C@@H](NC(=O)Cc3cccs3)[C@H]2SC1` [Cephalotin-Na, reference compound]: the MIC in assay [2] (Proteus mirabilis) was 12.5 µg/mL (≈ 31.5 µM); in assay [3] (Streptococcus pyogenes) it was 0.05 µg/mL (≈ 0.126 µM); in assay [4], 78.5 µg/mL (≈ 198 µM); in assay [5] (setting [7]), 0.13 µg/mL (≈ 0.328 µM).
